Source: ChEMBL document CHEMBL3588744, “Structure-Based Optimization of Naphthyridones into Potent ATAD2 Bromodomain Inhibitors” (J Med Chem, 2015)
Converted amounts (≈) assume the structure as drawn.

Experiments:
physchem = settings: phosphate buffered saline, pH 7.4, solubility
Description: Solubility of the compound in phosphate buffered saline at pH 7.4 after 1 hr by CLND method

[1] = biological target: T1, Bromodomain-containing protein 3 (Homo sapiens, UniProt Q15059); assay: Binding affinity to BRD3 in human HUT78 cells incubated for 45 mins by mass spectrometry based bromosphere chemoproteomic assay; assay type: cell-based
T1 sequence (Q15059 whole entry): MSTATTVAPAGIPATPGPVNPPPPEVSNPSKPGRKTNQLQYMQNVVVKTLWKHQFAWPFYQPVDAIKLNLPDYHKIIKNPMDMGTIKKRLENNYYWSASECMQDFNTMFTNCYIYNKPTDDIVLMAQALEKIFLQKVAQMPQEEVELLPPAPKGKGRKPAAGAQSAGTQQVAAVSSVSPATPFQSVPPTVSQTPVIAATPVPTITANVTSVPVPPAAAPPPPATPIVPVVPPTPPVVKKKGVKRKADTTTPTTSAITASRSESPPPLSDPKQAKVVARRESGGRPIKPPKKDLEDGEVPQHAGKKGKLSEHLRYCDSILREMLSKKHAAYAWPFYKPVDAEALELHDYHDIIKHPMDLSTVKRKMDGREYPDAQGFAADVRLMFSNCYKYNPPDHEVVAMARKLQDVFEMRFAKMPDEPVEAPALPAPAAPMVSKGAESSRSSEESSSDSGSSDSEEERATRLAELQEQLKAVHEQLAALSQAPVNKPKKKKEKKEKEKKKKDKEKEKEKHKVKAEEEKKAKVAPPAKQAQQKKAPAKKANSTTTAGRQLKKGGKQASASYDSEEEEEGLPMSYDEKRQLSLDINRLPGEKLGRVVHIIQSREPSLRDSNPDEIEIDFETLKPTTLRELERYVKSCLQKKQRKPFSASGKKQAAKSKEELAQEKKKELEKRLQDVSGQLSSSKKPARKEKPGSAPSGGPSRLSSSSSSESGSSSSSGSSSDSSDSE

Peregrin = biological target: T2, Peregrin (Homo sapiens, UniProt P55201); assay: Binding affinity to BRPF1 in human HUT78 cells incubated for 45 mins by mass spectrometry based bromosphere chemoproteomic assay; assay type: cell-based
T2 sequence (P55201 whole entry): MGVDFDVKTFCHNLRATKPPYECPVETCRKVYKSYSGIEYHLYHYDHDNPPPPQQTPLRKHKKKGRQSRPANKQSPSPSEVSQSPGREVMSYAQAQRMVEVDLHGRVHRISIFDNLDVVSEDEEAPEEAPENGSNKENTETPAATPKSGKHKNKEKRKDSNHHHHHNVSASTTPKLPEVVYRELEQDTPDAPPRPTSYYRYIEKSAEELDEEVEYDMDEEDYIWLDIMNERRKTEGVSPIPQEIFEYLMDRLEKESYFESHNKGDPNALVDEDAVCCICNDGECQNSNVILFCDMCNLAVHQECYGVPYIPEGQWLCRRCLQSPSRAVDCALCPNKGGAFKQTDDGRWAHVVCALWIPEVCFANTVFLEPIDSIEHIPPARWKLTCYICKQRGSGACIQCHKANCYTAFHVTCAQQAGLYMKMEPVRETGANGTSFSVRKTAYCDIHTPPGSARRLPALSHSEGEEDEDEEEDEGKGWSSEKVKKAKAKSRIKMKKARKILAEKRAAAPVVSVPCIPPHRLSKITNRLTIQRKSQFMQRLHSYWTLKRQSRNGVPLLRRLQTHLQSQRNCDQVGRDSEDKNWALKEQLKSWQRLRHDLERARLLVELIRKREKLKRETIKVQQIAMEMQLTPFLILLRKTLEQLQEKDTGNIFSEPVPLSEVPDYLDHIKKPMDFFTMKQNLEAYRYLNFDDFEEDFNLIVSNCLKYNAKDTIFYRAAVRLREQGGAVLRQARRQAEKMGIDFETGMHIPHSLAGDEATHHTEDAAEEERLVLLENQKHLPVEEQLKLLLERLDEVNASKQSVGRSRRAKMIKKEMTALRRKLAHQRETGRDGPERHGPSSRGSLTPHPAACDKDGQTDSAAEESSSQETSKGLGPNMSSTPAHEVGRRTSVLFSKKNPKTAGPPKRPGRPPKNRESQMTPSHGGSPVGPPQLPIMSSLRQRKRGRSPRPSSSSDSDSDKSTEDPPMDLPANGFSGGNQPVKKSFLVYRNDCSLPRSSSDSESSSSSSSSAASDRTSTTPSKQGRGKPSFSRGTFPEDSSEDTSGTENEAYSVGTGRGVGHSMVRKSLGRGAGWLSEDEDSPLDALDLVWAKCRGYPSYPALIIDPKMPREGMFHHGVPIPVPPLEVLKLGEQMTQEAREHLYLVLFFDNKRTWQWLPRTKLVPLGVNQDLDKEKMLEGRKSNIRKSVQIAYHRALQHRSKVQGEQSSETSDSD

[2] = biological target: Bromodomain adjacent to zinc finger domain protein 2A (Homo sapiens, UniProt Q9UIF9); assay: Binding affinity to BAZ2A in human HUT78 cells incubated for 45 mins by mass spectrometry based bromosphere chemoproteomic assay; assay type: cell-based
[3] = biological target: Bromodomain-containing protein 2 (Homo sapiens, UniProt P25440); assay: Binding affinity to BRD2 in human HUT78 cells incubated for 45 mins by mass spectrometry based bromosphere chemoproteomic assay; assay type: cell-based
Bromodomain-containing protein 2, sequence (P25440 whole entry): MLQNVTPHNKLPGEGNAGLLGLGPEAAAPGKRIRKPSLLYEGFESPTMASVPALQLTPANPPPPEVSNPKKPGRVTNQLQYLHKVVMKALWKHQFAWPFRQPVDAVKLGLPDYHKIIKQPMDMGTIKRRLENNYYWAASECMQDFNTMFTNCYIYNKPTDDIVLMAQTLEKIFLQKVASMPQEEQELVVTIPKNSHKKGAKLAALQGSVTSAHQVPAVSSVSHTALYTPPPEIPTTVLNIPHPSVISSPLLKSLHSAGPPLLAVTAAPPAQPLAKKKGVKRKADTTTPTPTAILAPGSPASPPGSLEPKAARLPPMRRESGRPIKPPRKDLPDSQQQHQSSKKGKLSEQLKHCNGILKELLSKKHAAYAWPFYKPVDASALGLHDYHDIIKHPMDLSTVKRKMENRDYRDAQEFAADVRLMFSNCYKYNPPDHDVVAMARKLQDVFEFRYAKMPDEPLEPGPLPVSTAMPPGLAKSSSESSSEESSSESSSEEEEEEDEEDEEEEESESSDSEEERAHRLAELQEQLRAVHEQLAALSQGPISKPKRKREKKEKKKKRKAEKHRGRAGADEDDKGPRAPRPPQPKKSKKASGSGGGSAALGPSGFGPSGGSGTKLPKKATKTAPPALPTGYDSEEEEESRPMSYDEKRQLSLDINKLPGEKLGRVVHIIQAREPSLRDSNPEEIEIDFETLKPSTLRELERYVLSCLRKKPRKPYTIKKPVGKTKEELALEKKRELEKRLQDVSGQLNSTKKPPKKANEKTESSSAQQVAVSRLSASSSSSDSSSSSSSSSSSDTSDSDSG

Protein polybromo-1 = Protein polybromo-1 (Homo sapiens, UniProt Q86U86); assay: Binding affinity to PBRM1 in human HUT78 cells incubated for 45 mins by mass spectrometry based bromosphere chemoproteomic assay; assay type: cell-based
[4] = Distribution coefficient, log D of the compound at pH 7.4 by chromatographic method; assay type: physicochemical; settings: octanol/water
[5] = Permeability across phosphatidyl choline membrane at pH 7.4 after 3 hrs by HPLC with UV detection method; assay type: ADME; settings: not told, read-out: permeability
[6] = biological target: Histone acetyltransferase KAT2A (Homo sapiens, UniProt Q92830); assay: Binding affinity to KAT2A in human HUT78 cells incubated for 45 mins by mass spectrometry based bromosphere chemoproteomic assay; assay type: cell-based
Histone acetyltransferase KAT2A, sequence (Q92830 whole entry): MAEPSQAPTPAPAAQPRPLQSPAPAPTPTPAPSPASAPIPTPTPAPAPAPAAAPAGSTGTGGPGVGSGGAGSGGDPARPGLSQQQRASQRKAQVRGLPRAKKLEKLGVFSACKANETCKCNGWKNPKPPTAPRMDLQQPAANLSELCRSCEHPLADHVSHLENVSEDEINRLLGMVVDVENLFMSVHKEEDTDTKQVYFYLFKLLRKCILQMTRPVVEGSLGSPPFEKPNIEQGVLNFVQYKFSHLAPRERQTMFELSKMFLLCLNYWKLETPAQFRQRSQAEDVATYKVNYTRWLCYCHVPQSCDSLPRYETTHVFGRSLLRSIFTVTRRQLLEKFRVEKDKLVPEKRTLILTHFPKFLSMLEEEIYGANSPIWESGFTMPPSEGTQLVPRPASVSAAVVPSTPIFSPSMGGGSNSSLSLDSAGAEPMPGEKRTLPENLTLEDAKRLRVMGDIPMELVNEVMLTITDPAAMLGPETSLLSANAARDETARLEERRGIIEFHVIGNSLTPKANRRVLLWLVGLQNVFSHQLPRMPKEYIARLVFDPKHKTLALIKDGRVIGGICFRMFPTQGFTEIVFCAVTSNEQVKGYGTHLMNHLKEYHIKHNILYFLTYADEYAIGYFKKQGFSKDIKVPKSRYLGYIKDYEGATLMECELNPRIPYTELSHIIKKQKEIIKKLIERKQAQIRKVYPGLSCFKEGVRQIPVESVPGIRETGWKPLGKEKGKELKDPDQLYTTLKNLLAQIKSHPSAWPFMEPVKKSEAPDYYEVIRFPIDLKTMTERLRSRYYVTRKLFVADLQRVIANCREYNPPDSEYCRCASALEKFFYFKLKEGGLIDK

[7] = biological target: Transcription initiation factor TFIID subunit 1 (Homo sapiens, UniProt P21675); assay: Binding affinity to TAF1 in human HUT78 cells incubated for 45 mins by mass spectrometry based bromosphere chemoproteomic assay; assay type: cell-based
Transcription initiation factor TFIID subunit 1, sequence (P21675 whole entry): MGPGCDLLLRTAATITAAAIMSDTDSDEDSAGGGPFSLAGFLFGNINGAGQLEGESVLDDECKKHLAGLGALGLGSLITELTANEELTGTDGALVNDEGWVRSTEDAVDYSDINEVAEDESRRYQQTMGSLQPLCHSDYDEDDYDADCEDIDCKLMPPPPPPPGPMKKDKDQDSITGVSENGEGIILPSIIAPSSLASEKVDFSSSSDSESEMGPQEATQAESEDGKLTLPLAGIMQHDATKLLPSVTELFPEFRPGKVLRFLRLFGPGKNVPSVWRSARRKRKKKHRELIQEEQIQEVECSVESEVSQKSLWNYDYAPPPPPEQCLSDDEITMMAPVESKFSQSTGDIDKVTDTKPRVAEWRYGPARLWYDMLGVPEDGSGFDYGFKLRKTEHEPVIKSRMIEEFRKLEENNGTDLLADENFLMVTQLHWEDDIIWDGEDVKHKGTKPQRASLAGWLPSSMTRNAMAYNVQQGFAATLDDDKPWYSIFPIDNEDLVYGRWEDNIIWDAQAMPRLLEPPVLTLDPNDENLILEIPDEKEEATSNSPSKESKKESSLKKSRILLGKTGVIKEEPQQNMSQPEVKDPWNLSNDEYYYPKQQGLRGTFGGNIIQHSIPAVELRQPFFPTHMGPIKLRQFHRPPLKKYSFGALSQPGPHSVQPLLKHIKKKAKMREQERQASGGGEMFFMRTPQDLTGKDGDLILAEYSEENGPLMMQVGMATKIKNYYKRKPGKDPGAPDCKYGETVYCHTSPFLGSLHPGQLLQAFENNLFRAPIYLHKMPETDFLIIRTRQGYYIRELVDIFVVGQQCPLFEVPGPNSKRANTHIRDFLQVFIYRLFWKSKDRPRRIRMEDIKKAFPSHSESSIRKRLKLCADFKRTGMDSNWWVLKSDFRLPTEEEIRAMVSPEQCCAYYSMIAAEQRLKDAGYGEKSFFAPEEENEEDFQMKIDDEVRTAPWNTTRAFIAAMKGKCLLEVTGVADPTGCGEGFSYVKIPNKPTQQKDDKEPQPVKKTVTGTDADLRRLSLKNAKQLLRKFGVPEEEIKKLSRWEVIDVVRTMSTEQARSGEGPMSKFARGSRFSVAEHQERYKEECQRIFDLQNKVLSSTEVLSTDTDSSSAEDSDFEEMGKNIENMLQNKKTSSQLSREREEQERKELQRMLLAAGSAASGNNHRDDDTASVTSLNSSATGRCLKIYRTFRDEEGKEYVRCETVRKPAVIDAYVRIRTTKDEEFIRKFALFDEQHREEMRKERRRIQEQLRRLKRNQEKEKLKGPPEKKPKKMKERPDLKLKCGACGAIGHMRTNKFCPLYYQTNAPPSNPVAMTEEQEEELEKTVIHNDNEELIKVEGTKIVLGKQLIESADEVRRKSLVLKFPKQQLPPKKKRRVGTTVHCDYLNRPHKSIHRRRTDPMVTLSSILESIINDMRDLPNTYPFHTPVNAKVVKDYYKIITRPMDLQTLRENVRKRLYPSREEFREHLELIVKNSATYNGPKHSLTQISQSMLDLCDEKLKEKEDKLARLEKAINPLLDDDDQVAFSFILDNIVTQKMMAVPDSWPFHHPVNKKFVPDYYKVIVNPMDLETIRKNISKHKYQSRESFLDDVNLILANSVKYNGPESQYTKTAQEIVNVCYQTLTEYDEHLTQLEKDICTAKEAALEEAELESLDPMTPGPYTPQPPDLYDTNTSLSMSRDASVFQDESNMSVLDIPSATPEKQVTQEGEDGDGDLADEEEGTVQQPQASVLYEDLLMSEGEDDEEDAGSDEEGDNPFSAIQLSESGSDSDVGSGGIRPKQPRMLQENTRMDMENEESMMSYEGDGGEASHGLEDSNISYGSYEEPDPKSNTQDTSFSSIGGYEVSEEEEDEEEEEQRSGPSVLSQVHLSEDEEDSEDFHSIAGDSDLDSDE

[8] = biological target: T3, Bromodomain-containing protein 9 (Homo sapiens, UniProt Q9H8M2); assay: Binding affinity to BRD9 in human HUT78 cells incubated for 45 mins by mass spectrometry based bromosphere chemoproteomic assay; assay type: cell-based
T3 sequence (Q9H8M2 whole entry): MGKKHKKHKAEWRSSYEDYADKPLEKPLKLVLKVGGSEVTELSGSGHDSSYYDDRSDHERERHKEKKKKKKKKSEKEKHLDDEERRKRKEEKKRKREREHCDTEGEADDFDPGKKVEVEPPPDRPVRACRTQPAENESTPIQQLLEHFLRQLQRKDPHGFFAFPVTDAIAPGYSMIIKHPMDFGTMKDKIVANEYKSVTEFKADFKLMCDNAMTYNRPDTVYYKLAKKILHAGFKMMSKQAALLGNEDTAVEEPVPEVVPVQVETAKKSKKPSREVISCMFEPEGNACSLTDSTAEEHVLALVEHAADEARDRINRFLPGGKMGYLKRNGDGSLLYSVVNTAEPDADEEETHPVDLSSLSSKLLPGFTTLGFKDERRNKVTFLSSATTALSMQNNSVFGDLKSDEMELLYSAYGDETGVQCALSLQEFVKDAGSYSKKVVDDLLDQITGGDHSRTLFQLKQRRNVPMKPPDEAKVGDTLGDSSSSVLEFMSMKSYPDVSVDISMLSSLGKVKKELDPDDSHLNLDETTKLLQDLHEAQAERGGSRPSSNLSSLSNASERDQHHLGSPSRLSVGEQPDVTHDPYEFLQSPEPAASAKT

[9] = biological target: Nucleosome-remodeling factor subunit BPTF (Homo sapiens, UniProt Q12830); assay: Binding affinity to BPTF in human HUT78 cells incubated for 45 mins by mass spectrometry based bromosphere chemoproteomic assay; assay type: cell-based
[10] = biological target: Bromodomain-containing protein 7 (Homo sapiens, UniProt Q9NPI1); assay: Binding affinity to BRD7 in human HUT78 cells incubated for 45 mins by mass spectrometry based bromosphere chemoproteomic assay; assay type: cell-based
[11] = biological target: Tyrosine-protein kinase BAZ1B (Homo sapiens, UniProt Q9UIG0); assay: Binding affinity to BAZ1B in human HUT78 cells incubated for 45 mins by mass spectrometry based bromosphere chemoproteomic assay; assay type: cell-based
[12] = biological target: T4, Bromodomain testis-specific protein (Homo sapiens, UniProt Q58F21); assay: Binding affinity to BRDT in human HUT78 cells incubated for 45 mins by mass spectrometry based bromosphere chemoproteomic assay; assay type: cell-based
[13] = biological target: Histone acetyltransferase KAT2B (Homo sapiens, UniProt Q92831); assay: Binding affinity to KAT2B in human HUT78 cells incubated for 45 mins by mass spectrometry based bromosphere chemoproteomic assay; assay type: cell-based
Histone acetyltransferase KAT2B, sequence (Q92831 whole entry): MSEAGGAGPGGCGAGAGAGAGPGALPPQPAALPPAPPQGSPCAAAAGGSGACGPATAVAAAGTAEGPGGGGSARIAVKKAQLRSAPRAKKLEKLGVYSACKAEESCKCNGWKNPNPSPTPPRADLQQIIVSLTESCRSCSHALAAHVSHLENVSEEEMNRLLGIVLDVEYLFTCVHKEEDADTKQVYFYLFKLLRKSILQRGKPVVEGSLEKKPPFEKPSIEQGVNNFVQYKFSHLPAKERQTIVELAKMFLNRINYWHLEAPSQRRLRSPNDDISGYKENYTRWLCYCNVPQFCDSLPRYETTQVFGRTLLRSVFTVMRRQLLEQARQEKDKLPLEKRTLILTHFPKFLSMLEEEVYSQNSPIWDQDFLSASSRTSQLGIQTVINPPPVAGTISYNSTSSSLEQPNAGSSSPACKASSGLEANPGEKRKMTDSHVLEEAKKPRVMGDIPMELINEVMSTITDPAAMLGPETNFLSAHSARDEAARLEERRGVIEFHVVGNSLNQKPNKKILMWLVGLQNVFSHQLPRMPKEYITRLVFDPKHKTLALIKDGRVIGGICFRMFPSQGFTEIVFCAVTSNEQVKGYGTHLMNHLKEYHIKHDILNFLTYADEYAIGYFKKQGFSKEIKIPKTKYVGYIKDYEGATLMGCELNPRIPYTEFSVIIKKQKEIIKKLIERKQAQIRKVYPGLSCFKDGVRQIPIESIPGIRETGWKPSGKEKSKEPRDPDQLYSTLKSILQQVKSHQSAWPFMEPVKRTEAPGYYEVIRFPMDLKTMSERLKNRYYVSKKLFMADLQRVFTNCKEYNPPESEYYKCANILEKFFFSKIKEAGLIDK

[14] = biological target: T1, Bromodomain-containing protein 3; assay: Binding affinity to BRD3 containing BD2 bromodomains (unknown origin) by TR-FRET assay
[15] = biological target: T5, Bromodomain-containing protein 4 (Homo sapiens, UniProt O60885); assay: Binding affinity to BRD4 containing BD2 bromodomains (unknown origin) by TR-FRET assay
[16] = biological target: T1, Bromodomain-containing protein 3; assay: Binding affinity to BRD3 containing BD1 bromodomains (unknown origin) by TR-FRET assay
[17] = biological target: T5, Bromodomain-containing protein 4; assay: Binding affinity to BRD4 containing BD1 bromodomains (unknown origin) by TR-FRET assay
[18] = biological target: T4, Bromodomain testis-specific protein; assay: Binding affinity to BRDt containing BD2 bromodomains (unknown origin) by TR-FRET assay
[19] = biological target: Bromodomain-containing protein 4 (Homo sapiens, UniProt O60885, Y390A)

Row | solubility kinetic at 1 h (physchem) [µM] | Kd [1] [nM] | Kd (Peregrin) [µM] | Kd [2] [µM] | Kd [3] [nM] | Kd (Protein polybromo-1) [nM] | chromatographic logD [4] | Papp at 3 h [5] [×10⁻⁶ cm/s] | Kd [6] [µM] | Kd [7] [µM] | Kd [8] [µM] | Kd [9] [µM] | SMILES | also measured
1 | 170 (≈ 78.5 µg/mL) | 2000 | > 100 | > 100 | 3160 | > 100000 | 4 | 13.8 | > 100 | 31.6 | 15.8 | > 100 | Cc1cncc(-c2cnc(N[C@@H]3CCNC[C@H]3OCC3CCCCC3)c3[nH]c(=O)c(C)cc23)c1 | 
2 |  | 1000 | 25.1 | 3.98 | 631 | 2510 |  |  | > 100 | 1.58 | 1.26 | > 100 | Cc1cncc(-c2ccc(N[C@@H]3CCNC[C@H]3OCC3CCS(=O)(=O)CC3)c3[nH]c(=O)c(C)cc23)c1 | Kd [10]: 3.16 µM; Kd [11]: > 100 µM; Kd [12]: 2000 nM; Kd [13]: > 100 µM
3 | 179 (≈ 91.6 µg/mL) |  |  |  |  |  | 1.6 | < 0.3 |  |  |  |  | Cc1cncc(-c2cnc(N[C@@H]3CCNC[C@H]3OCC3CCS(=O)(=O)CC3)c3[nH]c(=O)c(C)cc23)c1 | IC50 [14]: > 50.1 µM; IC50 [15]: 5.01 µM; IC50 [16]: > 50.1 µM; IC50 [17]: 15.8 µM; IC50 [18]: > 50.1 µM; IC50 [19]: 15.8 µM
